Measured values reported in article PMC3556037, “Stimulation of Inositol 1,4,5-Trisphosphate (IP3) Receptor Subtypes by Analogues of IP3” (PLoS ONE, 2013).
Like-named read-outs stand apart in the source and are kept apart here.

Key:
Experiment in all cases: Ca2+ release from ER of permeabilized DT40 cells, luminal Mag fluo-4
IP3R3 [1] = target: T1, IP3R3 (Rattus norvegicus, UniProt Q63269); format: cell-based
T1 construct: gene Itpr3; full-length, homotetramer, stably expressed in DT40 cells lacking all endogenous IP3R; saponin-permeabilized cells
T1 sequence (Q63269 whole entry): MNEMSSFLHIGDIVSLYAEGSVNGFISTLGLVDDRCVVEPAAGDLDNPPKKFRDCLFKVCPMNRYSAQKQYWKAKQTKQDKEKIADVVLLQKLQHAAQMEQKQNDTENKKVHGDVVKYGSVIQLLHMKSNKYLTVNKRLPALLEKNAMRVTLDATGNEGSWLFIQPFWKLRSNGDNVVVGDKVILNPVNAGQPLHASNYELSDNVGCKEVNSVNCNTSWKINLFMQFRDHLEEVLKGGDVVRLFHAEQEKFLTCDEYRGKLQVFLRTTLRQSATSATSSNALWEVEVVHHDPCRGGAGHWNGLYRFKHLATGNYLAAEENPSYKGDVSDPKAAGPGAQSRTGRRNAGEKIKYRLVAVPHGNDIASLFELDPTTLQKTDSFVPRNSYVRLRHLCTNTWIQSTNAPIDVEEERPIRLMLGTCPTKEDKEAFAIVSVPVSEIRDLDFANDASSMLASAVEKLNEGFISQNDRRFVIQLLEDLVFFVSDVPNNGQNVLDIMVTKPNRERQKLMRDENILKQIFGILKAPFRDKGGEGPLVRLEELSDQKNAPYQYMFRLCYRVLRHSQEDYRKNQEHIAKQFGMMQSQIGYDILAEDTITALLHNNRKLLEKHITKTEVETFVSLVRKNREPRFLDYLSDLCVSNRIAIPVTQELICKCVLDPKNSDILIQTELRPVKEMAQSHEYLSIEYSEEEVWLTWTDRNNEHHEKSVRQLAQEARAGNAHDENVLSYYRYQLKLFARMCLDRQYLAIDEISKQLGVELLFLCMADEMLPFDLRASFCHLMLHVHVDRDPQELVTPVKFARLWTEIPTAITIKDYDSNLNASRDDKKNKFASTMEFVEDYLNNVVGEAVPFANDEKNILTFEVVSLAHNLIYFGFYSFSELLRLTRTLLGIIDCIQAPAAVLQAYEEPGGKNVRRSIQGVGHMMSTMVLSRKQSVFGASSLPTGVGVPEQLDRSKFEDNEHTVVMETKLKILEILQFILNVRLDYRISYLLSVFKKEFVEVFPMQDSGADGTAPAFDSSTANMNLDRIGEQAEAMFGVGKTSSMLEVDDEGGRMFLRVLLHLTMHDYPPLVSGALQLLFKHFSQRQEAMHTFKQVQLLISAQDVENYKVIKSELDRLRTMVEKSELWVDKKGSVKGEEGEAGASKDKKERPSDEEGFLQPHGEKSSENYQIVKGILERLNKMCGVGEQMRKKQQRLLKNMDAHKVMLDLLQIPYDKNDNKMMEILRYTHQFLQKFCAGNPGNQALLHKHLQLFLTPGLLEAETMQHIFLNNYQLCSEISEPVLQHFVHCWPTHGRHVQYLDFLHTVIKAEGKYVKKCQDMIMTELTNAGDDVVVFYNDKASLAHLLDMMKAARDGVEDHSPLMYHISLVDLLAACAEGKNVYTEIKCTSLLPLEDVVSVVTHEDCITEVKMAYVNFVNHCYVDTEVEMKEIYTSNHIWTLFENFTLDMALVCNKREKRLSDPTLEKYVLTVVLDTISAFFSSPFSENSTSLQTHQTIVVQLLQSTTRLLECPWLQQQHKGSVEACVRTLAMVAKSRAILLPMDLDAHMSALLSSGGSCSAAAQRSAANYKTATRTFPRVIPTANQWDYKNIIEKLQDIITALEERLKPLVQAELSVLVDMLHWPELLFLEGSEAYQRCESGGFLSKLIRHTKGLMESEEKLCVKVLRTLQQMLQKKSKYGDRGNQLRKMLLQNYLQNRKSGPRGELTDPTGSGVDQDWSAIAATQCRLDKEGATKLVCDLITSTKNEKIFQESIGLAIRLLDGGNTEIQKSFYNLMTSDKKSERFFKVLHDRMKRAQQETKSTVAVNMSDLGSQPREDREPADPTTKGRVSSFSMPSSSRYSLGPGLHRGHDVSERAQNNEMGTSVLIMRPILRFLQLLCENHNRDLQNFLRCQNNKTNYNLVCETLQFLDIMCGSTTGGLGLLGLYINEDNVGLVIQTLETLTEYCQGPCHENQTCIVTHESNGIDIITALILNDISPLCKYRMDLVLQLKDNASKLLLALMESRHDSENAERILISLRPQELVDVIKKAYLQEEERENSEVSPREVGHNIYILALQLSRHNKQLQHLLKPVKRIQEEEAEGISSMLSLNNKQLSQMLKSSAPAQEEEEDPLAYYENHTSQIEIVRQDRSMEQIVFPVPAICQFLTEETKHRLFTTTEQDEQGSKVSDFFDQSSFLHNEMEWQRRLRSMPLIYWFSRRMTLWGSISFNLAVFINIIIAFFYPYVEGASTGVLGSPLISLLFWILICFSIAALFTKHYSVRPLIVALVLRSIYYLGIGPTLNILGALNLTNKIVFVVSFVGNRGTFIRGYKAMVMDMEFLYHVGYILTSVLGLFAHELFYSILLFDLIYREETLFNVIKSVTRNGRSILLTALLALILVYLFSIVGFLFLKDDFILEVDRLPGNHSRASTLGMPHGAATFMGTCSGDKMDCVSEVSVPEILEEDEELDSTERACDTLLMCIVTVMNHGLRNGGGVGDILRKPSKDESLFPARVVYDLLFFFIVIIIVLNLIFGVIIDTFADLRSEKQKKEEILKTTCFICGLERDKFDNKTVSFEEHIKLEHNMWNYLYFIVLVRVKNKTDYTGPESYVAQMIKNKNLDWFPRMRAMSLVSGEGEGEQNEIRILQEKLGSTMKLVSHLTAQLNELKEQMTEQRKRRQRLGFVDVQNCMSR
Source text: (§1) Ca2+ release from ER of permeabilized DT40 cells, luminal Mag fluo-4 on IP3R3

IP3R2 = target: T2, IP3R2 (Mus musculus, UniProt Q9Z329); format: cell-based
T2 construct: gene Itpr2; full-length, homotetramer, stably expressed in DT40 cells lacking all endogenous IP3R; saponin-permeabilized cells
Source text: Ca2+ release from ER of permeabilized DT40 cells, luminal Mag fluo-4 on IP3R2

IP3R3 [2] = target: T1, IP3R3; format: biochemical
Source text: as §1

[3] = 100 µM, 1.5 mM MgATP, free Ca2+ ~220 nM, pH 7, 20 °C, thapsigargin 1 µM, unreliable: paper suspects minor contamination by active IP3

Row | SMILES | EC50 (IP3R3 [1]) | EC50 (IP3R2) | EC50 (IP3R3 [2]) | IP3R3 / Ca^2+release (%) (IP3R3 [1]; [3]) | IP3R2 / Ca^2+release (%) (IP3R2; [3])
1 | O=P(O)(O)O[C@@H]1[C@@H](O)[C@H](OP(=O)(O)O)C[C@H](O)[C@H]1OP(=O)(O)O [2-deoxy(1,4,5)IP3] | 0.324 µM | 0.115 µM |  |  | 
2 | O=P(O)(O)O[C@@H]1[C@@H](O)[C@H](OP(=O)(O)O)[C@H](O)C[C@H]1OP(=O)(O)O [3-deoxy(1,4,5)IP3] |  | 5.89 µM | 15.8 µM |  | 
3 | O=P(O)(O)O[C@H]1[C@H](O)[C@@H](O)[C@H](OP(=O)(O)O)[C@@H](OP(=O)(O)O)[C@H]1O [(1,3,4)IP3] |  |  |  | 2±1% | 18±6%
4 | O=P(O)(O)O[C@@H]1[C@H](O)[C@H](O)[C@@H](OP(=O)(O)O)[C@H](OP(=O)(O)O)[C@H]1O [(1,4,5)IP3] | 0.417 µM | 0.145 µM |  |  | 
5 | O=P(O)(O)O[C@@H]1[C@@H](O)[C@@H](O)[C@@H](OP(=O)(O)O)[C@H](OP(=O)(O)O)[C@H]1O [(1,4,6)IP3] | 15.8 µM | 12.6 µM |  |  | 
6 | O=P(O)(O)O[C@@H]1[C@@H](O)[C@H](O)[C@H](O)[C@H](O)[C@H]1OP(=O)(O)O [(4,5)IP2] | 11.5 µM | 6.31 µM |  |  | 
7 | CN(C)c1ccc(C(=C2C=CC(=[N+](C)C)C=C2)c2ccc(C(=O)NCCCOP(=O)(O)O[C@@H]3[C@H](O)[C@H](O)[C@@H](OP(=O)(O)O)[C@H](OP(=O)(O)O)[C@H]3O)cc2)cc1 [MG(1,4,5)IP3] |  | 0.708 µM | 1.74 µM |  | 
